Measured values published in ChEMBL document CHEMBL4177586, “Small molecule adjuvants that suppress both chromosomal and mcr-1 encoded colistin-resistance and amplify colistin efficacy in polymyxin-susceptible bacteria” (Bioorg Med Chem, 2017).
Values after ≈ are worked out from the molar mass of the structure shown.

What was measured:
Acinetobacter baumannii [1] = assay: Potentiation of colistin-induced antimicrobial activity against Acinetobacter baumannii ATCC 17978 expressing mcr1 gene assessed as colistin MIC at 30 uM incubated for overnight duration by CLSI based method (reference value: 16 ug/ml); assay type: functional
Acinetobacter baumannii [2] = assay: Potentiation of colistin-induced antimicrobial activity against Acinetobacter baumannii SM1536 expressing mcr1 gene assessed as colistin MIC at 30 uM incubated for overnight duration by CLSI based method (reference value: 64 ug/ml); assay type: functional
Escherichia coli [3] = assay: Potentiation of colistin-induced antimicrobial activity against Escherichia coli ATCC 25922 expressing mcr1 gene assessed as colistin MIC at 30 uM incubated for overnight duration by CLSI based method (reference value: 8 ug/ml); assay type: functional
Escherichia coli [4] = assay: Potentiation of colistin-induced antimicrobial activity against Escherichia coli YD626 expressing mcr1 gene assessed as colistin MIC at 30 uM incubated for overnight duration by CLSI based method (reference value: 4 ug/ml); assay type: functional
Acinetobacter baumannii [5] = assay: Potentiation of colistin-induced antimicrobial activity against Acinetobacter baumannii ATCC 17978 expressing mcr1 gene assessed as colistin MIC at 15 uM incubated for overnight duration by CLSI based method (reference value: 16 ug/ml); assay type: functional
Acinetobacter baumannii [6] = assay: Potentiation of colistin-induced antimicrobial activity against Acinetobacter baumannii SM1536 expressing mcr1 gene assessed as colistin MIC at 15 uM incubated for overnight duration by CLSI based method (reference value: 64 ug/ml); assay type: functional
Escherichia coli [7] = assay: Potentiation of colistin-induced antimicrobial activity against Escherichia coli ATCC 25922 expressing mcr1 gene assessed as colistin MIC at 15 uM incubated for overnight duration by CLSI based method (reference value: 8 ug/ml); assay type: functional
Escherichia coli [8] = assay: Potentiation of colistin-induced antimicrobial activity against Escherichia coli YD626 expressing mcr1 gene assessed as colistin MIC at 15 uM incubated for overnight duration by CLSI based method (reference value: 4 ug/ml); assay type: functional
Klebsiella pneumoniae [9] = assay: Potentiation of colistin-induced antimicrobial activity against Klebsiella pneumoniae 2210291 expressing mcr1 gene assessed as colistin MIC at 15 uM incubated for overnight duration by CLSI based method (reference value: 16 ug/ml); assay type: functional
Acinetobacter baumannii [10] = assay: Potentiation of colistin-induced antimicrobial activity against Acinetobacter baumannii ATCC 17978 expressing mcr1 gene assessed as reduction in colistin MIC at 30 uM incubated for overnight duration by CLSI based method relative to colistin alone control; assay type: functional
Acinetobacter baumannii [11] = assay: Potentiation of colistin-induced antimicrobial activity against Acinetobacter baumannii SM1536 expressing mcr1 gene assessed as reduction in colistin MIC at 30 uM incubated for overnight duration by CLSI based method relative to colistin alone control; assay type: functional
Escherichia coli [12] = assay: Potentiation of colistin-induced antimicrobial activity against Escherichia coli ATCC 25922 expressing mcr1 gene assessed as reduction in colistin MIC at 30 uM incubated for overnight duration by CLSI based method relative to colistin alone control; assay type: functional
Escherichia coli [13] = assay: Potentiation of colistin-induced antimicrobial activity against Escherichia coli YD626 expressing mcr1 gene assessed as reduction in colistin MIC at 30 uM incubated for overnight duration by CLSI based method relative to colistin alone control; assay type: functional
Klebsiella pneumoniae [14] = assay: Potentiation of colistin-induced antimicrobial activity against Klebsiella pneumoniae 2210291 expressing mcr1 gene assessed as reduction in colistin MIC at 30 uM incubated for overnight duration by CLSI based method relative to colistin alone control; assay type: functional
Acinetobacter baumannii [15] = assay: Potentiation of colistin-induced antimicrobial activity against Acinetobacter baumannii ATCC 17978 expressing mcr1 gene assessed as reduction in colistin MIC at 15 uM incubated for overnight duration by CLSI based method relative to colistin alone control; assay type: functional
Escherichia coli [16] = assay: Potentiation of colistin-induced antimicrobial activity against Escherichia coli ATCC 25922 expressing mcr1 gene assessed as reduction in colistin MIC at 15 uM incubated for overnight duration by CLSI based method relative to colistin alone control; assay type: functional
Escherichia coli [17] = assay: Potentiation of colistin-induced antimicrobial activity against Escherichia coli YD626 expressing mcr1 gene assessed as reduction in colistin MIC at 15 uM incubated for overnight duration by CLSI based method relative to colistin alone control; assay type: functional
Klebsiella pneumoniae [18] = assay: Potentiation of colistin-induced antimicrobial activity against Klebsiella pneumoniae 2210291 expressing mcr1 gene assessed as reduction in colistin MIC at 15 uM incubated for overnight duration by CLSI based method relative to colistin alone control; assay type: functional
Acinetobacter baumannii [19] = assay: Toxicity against Acinetobacter baumannii SM1536 incubated for overnight duration by CLSI based method; assay type: organism-based; settings: in vivo
Escherichia coli [20] = assay: Toxicity against Escherichia coli ATCC 25922 incubated for overnight duration by CLSI based method; assay type: organism-based; settings: in vivo
Escherichia coli [21] = assay: Toxicity against Escherichia coli YD626 incubated for overnight duration by CLSI based method; assay type: organism-based; settings: in vivo
Klebsiella pneumoniae [22] = assay: Toxicity against Klebsiella pneumoniae 2210291 incubated for overnight duration by CLSI based method; assay type: organism-based; settings: in vivo
Acinetobacter baumannii [23] = assay: Potentiation of colistin-induced antimicrobial activity against Acinetobacter baumannii ATCC 17978 assessed as colistin MIC at 30 uM incubated for overnight duration by CLSI based method (reference value: 2 ug/ml); assay type: functional
Acinetobacter baumannii [24] = assay: Potentiation of colistin-induced antimicrobial activity against Acinetobacter baumannii SM1536 assessed as colistin MIC at 30 uM incubated for overnight duration by CLSI based method (reference value: 2 ug/ml); assay type: functional
Escherichia coli [25] = assay: Potentiation of colistin-induced antimicrobial activity against Escherichia coli ATCC 25922 assessed as colistin MIC at 30 uM incubated for overnight duration by CLSI based method (reference value: […]); assay type: functional
Klebsiella pneumoniae [26] = assay: Potentiation of colistin-induced antimicrobial activity against Klebsiella pneumoniae 2210291 assessed as colistin MIC at 30 uM incubated for overnight duration by CLSI based method (reference value: 1 ug/ml); assay type: functional
Escherichia coli [27] = assay: Potentiation of colistin-induced antimicrobial activity against Escherichia coli ATCC 25922 assessed as reduction in colistin MIC at 30 uM incubated for overnight duration by CLSI based method relative to colistin alone control; assay type: functional
Klebsiella pneumoniae [28] = assay: Potentiation of colistin-induced antimicrobial activity against Klebsiella pneumoniae 2210291 assessed as reduction in colistin MIC at 30 uM incubated for overnight duration by CLSI based method relative to colistin alone control; assay type: functional
Klebsiella pneumoniae [29] = assay: Toxicity against Klebsiella pneumoniae BAA2146 incubated for overnight duration by CLSI based method; assay type: organism-based; settings: in vivo
Acinetobacter baumannii [30] = assay: Potentiation of colistin-induced antimicrobial activity against multidrug resistant Acinetobacter baumannii 5075 assessed as minimum drug concentration needed to cause colsitin MIC of 0.125 ug/ml incubated for overnight duration by CLSI based method; assay type: functional
Acinetobacter baumannii [31] = assay: Potentiation of colistin-induced antimicrobial activity against multidrug resistant Acinetobacter baumannii BAA1605 assessed as minimum drug concentration needed to cause colsitin MIC of 0.125 ug/ml incubated for overnight duration by CLSI based method; assay type: functional
Klebsiella pneumoniae [32] = assay: Potentiation of colistin-induced antimicrobial activity against multidrug resistant Klebsiella pneumoniae BAA2146 assessed as minimum drug concentration needed to cause colsitin MIC of 0.125 ug/ml incubated for overnight duration by CLSI based method; assay type: functional

Compound: CCCCCc1ccc(C(=O)NCCn2cc(CCCCCc3cnc(N)n3Cc3ccc(CCCC)cc3)nn2)cc1
- MIC (Acinetobacter baumannii [1]): 0.5 µg/mL
- MIC (Acinetobacter baumannii [2]): 2 µg/mL
- MIC (Escherichia coli [3]): 0.25 µg/mL
- MIC (Escherichia coli [4]): < 0.002 µg/mL
- MIC (Acinetobacter baumannii [5]): 2 µg/mL
- MIC (Acinetobacter baumannii [6]): 8 µg/mL
- MIC (Escherichia coli [7]): 0.5 µg/mL
- MIC (Escherichia coli [8]): 0.063 µg/mL
- MIC (Klebsiella pneumoniae [9]): 1 µg/mL
- fold change (FC) (Acinetobacter baumannii [10]): 32
- fold change (FC) (Acinetobacter baumannii [11]): 32
- fold change (FC) (Escherichia coli [12]): 32
- fold change (FC) (Escherichia coli [13]): >2048
- fold change (FC) (Klebsiella pneumoniae [14]): 64
- fold change (FC) (Acinetobacter baumannii [15]): 8
- fold change (FC) (Escherichia coli [16]): 16
- fold change (FC) (Escherichia coli [17]): 64
- fold change (FC) (Klebsiella pneumoniae [18]): 16
- MIC (Acinetobacter baumannii [19]): > 200 µM
- MIC (Escherichia coli [20]): > 200 µM
- MIC (Escherichia coli [21]): > 200 µM
- MIC (Klebsiella pneumoniae [22]): > 200 µM
- MIC (Acinetobacter baumannii [23]): < 0.00098 µg/mL
- MIC (Acinetobacter baumannii [24]): < 0.00098 µg/mL
- MIC (Escherichia coli [25]): < 0.00049 µg/mL
- MIC (Klebsiella pneumoniae [26]): 0.016 µg/mL
- fold change (FC) (Escherichia coli [27]): >2048
- fold change (FC) (Klebsiella pneumoniae [28]): 64
- MIC (Klebsiella pneumoniae [29]): > 200 µM
- MIC (Acinetobacter baumannii [30]): 10 µM
- MIC (Acinetobacter baumannii [31]): 5 µM
- MIC (Klebsiella pneumoniae [32]): 10 µM

Compound: CCCCCCc1ccc(-c2cn(C(C)C)c(N)n2)cc1
- MIC (Acinetobacter baumannii [1]): 0.5 µg/mL
- MIC (Acinetobacter baumannii [2]): 1 µg/mL
- MIC (Escherichia coli [3]): 0.016 µg/mL
- MIC (Escherichia coli [4]): 0.016 µg/mL
- MIC (Acinetobacter baumannii [5]): 4 µg/mL
- MIC (Acinetobacter baumannii [6]): 8 µg/mL
- MIC (Escherichia coli [7]): 8 µg/mL
- MIC (Escherichia coli [8]): 2 µg/mL
- MIC (Klebsiella pneumoniae [9]): 8 µg/mL
- fold change (FC) (Acinetobacter baumannii [10]): 32
- fold change (FC) (Acinetobacter baumannii [11]): 64
- fold change (FC) (Escherichia coli [12]): 512
- fold change (FC) (Escherichia coli [13]): 256
- fold change (FC) (Klebsiella pneumoniae [14]): 32
- fold change (FC) (Acinetobacter baumannii [15]): 4
- fold change (FC) (Escherichia coli [16]): 0
- fold change (FC) (Escherichia coli [17]): 2
- fold change (FC) (Klebsiella pneumoniae [18]): 2
- MIC (Acinetobacter baumannii [19]): 200 µM (≈ 57.1 µg/mL)
- MIC (Escherichia coli [20]): 200 µM (≈ 57.1 µg/mL)
- MIC (Escherichia coli [21]): 200 µM (≈ 57.1 µg/mL)
- MIC (Klebsiella pneumoniae [22]): 200 µM (≈ 57.1 µg/mL)
- MIC (Acinetobacter baumannii [23]): 0.016 µg/mL
- MIC (Acinetobacter baumannii [24]): 0.016 µg/mL
- MIC (Escherichia coli [25]): 0.0039 µg/mL
- MIC (Klebsiella pneumoniae [26]): 0.031 µg/mL
- fold change (FC) (Escherichia coli [27]): 256
- fold change (FC) (Klebsiella pneumoniae [28]): 64
- MIC (Klebsiella pneumoniae [29]): > 200 µM
- MIC (Acinetobacter baumannii [30]): 20 µM
- MIC (Acinetobacter baumannii [31]): 25 µM
- MIC (Klebsiella pneumoniae [32]): 20 µM

Compound: CCCCCCc1ccc(-c2cn(CC)c(N)n2)cc1
- MIC (Acinetobacter baumannii [1]): 0.5 µg/mL
- MIC (Acinetobacter baumannii [2]): 0.25 µg/mL
- MIC (Escherichia coli [3]): < 0.0039 µg/mL
- MIC (Escherichia coli [4]): < 0.0019 µg/mL
- MIC (Acinetobacter baumannii [5]): 4 µg/mL
- MIC (Acinetobacter baumannii [6]): 8 µg/mL
- MIC (Escherichia coli [7]): 4 µg/mL
- MIC (Escherichia coli [8]): 0.5 µg/mL
- MIC (Klebsiella pneumoniae [9]): 4 µg/mL
- fold change (FC) (Acinetobacter baumannii [10]): 32
- fold change (FC) (Acinetobacter baumannii [11]): 256
- fold change (FC) (Escherichia coli [12]): >2048
- fold change (FC) (Escherichia coli [13]): >2048
- fold change (FC) (Klebsiella pneumoniae [14]): 128
- fold change (FC) (Acinetobacter baumannii [15]): 4
- fold change (FC) (Escherichia coli [16]): 2
- fold change (FC) (Escherichia coli [17]): 8
- fold change (FC) (Klebsiella pneumoniae [18]): 4
- MIC (Acinetobacter baumannii [19]): 100 µM (≈ 27.1 µg/mL)
- MIC (Escherichia coli [20]): 200 µM (≈ 54.3 µg/mL)
- MIC (Escherichia coli [21]): 200 µM (≈ 54.3 µg/mL)
- MIC (Klebsiella pneumoniae [22]): > 200 µM
- MIC (Acinetobacter baumannii [23]): 0.0039 µg/mL
- MIC (Acinetobacter baumannii [24]): 0.0078 µg/mL
- MIC (Escherichia coli [25]): 0.00098 µg/mL
- MIC (Klebsiella pneumoniae [26]): 0.031 µg/mL
- fold change (FC) (Escherichia coli [27]): 2048
- fold change (FC) (Klebsiella pneumoniae [28]): 32
- MIC (Klebsiella pneumoniae [29]): > 200 µM
- MIC (Acinetobacter baumannii [30]): 15 µM
- MIC (Acinetobacter baumannii [31]): 15 µM
- MIC (Klebsiella pneumoniae [32]): 15 µM
